Results: patent EP4635500A1, “THERAPEUTIC AGENT FOR BACTERIAL INFECTION” (Sumitomo Pharma Co., Ltd., priority 2022, dated 2024)
In brackets after ≈: the same amount, converted by molar mass. Like-named read-outs stand apart in the source and are kept apart here.

Tests used:
[1] = test system: 53 CRE and CPE strains; assay: MICrange, MIC50, MIC80, MIC90 for 53 bacterial isolates (Example 5, Table 5); assay type: cell-based; conditions: 53 bacterial isolates
[2] = test system: Enterobacterales; assay: MIC, broth microdilution, CDC/FDA Antibiotic Resistance Isolate Bank (Example 7, Tables 8, 11, 12); assay type: cell-based; conditions: read-out: MIC
[3] = test system: A. baumannii; assay: MIC, broth microdilution, CDC/FDA Antibiotic Resistance Isolate Bank (Example 7, Tables 9, 13, 14); assay type: cell-based, Acinetobacter baumannii; conditions: for MIC: Acinetobacter baumannii, read-out: MIC
[4] = MIC distribution, metallo-β-lactamase-producing A. baumannii, inhibitor µg/mL in parentheses

Compound: C[C@H]1[C@H](NC(=O)/C(=N\OC(C)(C)C(=O)O)c2csc(N)n2)C(=O)N1S(=O)(=O)O [Aztreonam, aztreonam]
- MIC80 ([1]; read-out: MIC80): > 64 µg/mL
- MIC90 ([1]; read-out: MIC90): > 64 µg/mL
- MIC ([2]; Enterobacter cloacae, Enterobacter cloacae KUB No. 5807, AR Bank #501): 1 µg/mL (≈ 2.3 µM)
- MIC ([2]; Enterobacter cloacae, Enterobacter cloacae group, KUB No. 5629, AR Bank # 132): 2 µg/mL (≈ 4.59 µM)
- MIC ([2]; Enterobacter cloacae, KUB No. 5529, AR Bank# 32): 32 µg/mL (≈ 73.5 µM)
- MIC ([2]; Enterobacter cloacae, KUB No. 5557, AR Bank# 60): 32 µg/mL (≈ 73.5 µM)
- MIC ([2]; Enterobacter cloacae, KUB No. 5570, AR Bank # 73): 4 µg/mL (≈ 9.19 µM)
- MIC ([2]; Enterobacter cloacae, KUB No. 5778, AR Bank # 432): 32 µg/mL (≈ 73.5 µM)
- MIC ([2]; Escherichia coli, Escherichia coli KUB No. 5796, AR Bank #452): 0.12 µg/mL (≈ 0.276 µM)
- MIC ([2]; Escherichia coli, Escherichia coli KUB No. 5803, AR Bank #861): 1 µg/mL (≈ 2.3 µM)
- MIC ([2]; Escherichia coli, KUB No. 5552, AR Bank# 55): 32 µg/mL (≈ 73.5 µM)
- MIC ([2]; Escherichia coli, KUB No. 5555, AR Bank# 58): 8 µg/mL (≈ 18.4 µM)
- MIC ([2]; Escherichia coli, KUB No. 5564, AR Bank # 67): 4 µg/mL (≈ 9.19 µM)
- MIC ([2]; Escherichia coli, KUB No. 5566, AR Bank # 69): 4 µg/mL (≈ 9.19 µM)
- MIC ([2]; Escherichia coli, KUB No. 5574, AR Bank # 77): 0.06 µg/mL (≈ 0.138 µM)
- MIC ([2]; Escherichia coli, KUB No. 5578, AR Bank # 81): 8 µg/mL (≈ 18.4 µM)
- MIC ([2]; Escherichia coli, KUB No. 5581, AR Bank # 84): 0.5 µg/mL (≈ 1.15 µM)
- MIC ([2]; Escherichia coli, KUB No. 5582, AR Bank # 85): 16 µg/mL (≈ 36.7 µM)
- MIC ([2]; Escherichia coli, KUB No. 5583, AR Bank # 86): 4 µg/mL (≈ 9.19 µM)
- MIC ([2]; Escherichia coli, KUB No. 5586, AR Bank # 89): 16 µg/mL (≈ 36.7 µM)
- MIC ([2]; Escherichia coli, KUB No. 5615, AR Bank # 118): 32 µg/mL (≈ 73.5 µM)
- MIC ([2]; Escherichia coli, KUB No. 5646, AR Bank # 149): 0.5 µg/mL (≈ 1.15 µM)
- MIC ([2]; Escherichia coli, KUB No. 5647, AR Bank # 150): 32 µg/mL (≈ 73.5 µM)
- MIC ([2]; Escherichia coli, KUB No. 5648, AR Bank # 151): 32 µg/mL (≈ 73.5 µM)
- MIC ([2]; Escherichia coli, KUB No. 5764, AR Bank # 368): 0.06 µg/mL (≈ 0.138 µM)
- MIC ([2]; Escherichia coli, KUB No. 5767, AR Bank # 371): 16 µg/mL (≈ 36.7 µM)
- MIC ([2]; Escherichia coli, KUB No. 5769, AR Bank # 373): 16 µg/mL (≈ 36.7 µM)
- MIC ([2]; Escherichia coli, KUB No. 5770, AR Bank # 374): 16 µg/mL (≈ 36.7 µM)
- MIC ([2]; Escherichia coli, KUB No. 5774, AR Bank # 378): 0.12 µg/mL (≈ 0.276 µM)
- MIC ([2]; Escherichia coli, KUB No. 5779, AR Bank # 433): 32 µg/mL (≈ 73.5 µM)
- MIC ([2]; Escherichia, KUB No. 57, AR Bank # 436 (row cut off)): 32 µg/mL (≈ 73.5 µM)
- MIC ([2]; Klebsiella aerogenes, Enterobacter aerogenes, KUB No. 5559, AR Bank # 62): 16 µg/mL (≈ 36.7 µM)
- MIC ([2]; Klebsiella aerogenes, Enterobacter aerogenes, KUB No. 5571, AR Bank # 74): 0.12 µg/mL (≈ 0.276 µM)
- MIC ([2]; Klebsiella aerogenes, Enterobacter aerogenes, KUB No. 5658, AR Bank # 161): 32 µg/mL (≈ 73.5 µM)
- MIC ([2]; Klebsiella aerogenes, Enterobacter aerogenes, KUB No. 5777, AR Bank # 431): 16 µg/mL (≈ 36.7 µM)
- MIC ([2]; Klebsiella oxytoca, KUB No. 5644, AR Bank # 147): 4 µg/mL (≈ 9.19 µM)
- MIC ([2]; Klebsiella oxytoca, KUB No. 5771, AR Bank # 375): 32 µg/mL (≈ 73.5 µM)
- MIC ([2]; Klebsiella pneumoniae, KUB No. 5531, AR Bank# 34): 0.06 µg/mL (≈ 0.138 µM)
- MIC ([2]; Klebsiella pneumoniae, KUB No. 5573, AR Bank # 76): 0.25 µg/mL (≈ 0.574 µM)
- MIC ([2]; Klebsiella pneumoniae, KUB No. 5623, AR Bank # 126): 32 µg/mL (≈ 73.5 µM)
- MIC ([2]; Klebsiella pneumoniae, KUB No. 5657, AR Bank # 160): 0.12 µg/mL (≈ 0.276 µM)
- MIC ([2]; Klebsiella pneumoniae, Klebsiella pneumoniae KUB No. 5809, AR Bank #504): 32 µg/mL (≈ 73.5 µM)
- MIC ([2]; Morganella morganii, Morganella morganii KUB No. 5824, AR Bank #519): 32 µg/mL (≈ 73.5 µM)
- MIC ([2]; Proteus mirabilis, KUB No. 5556, AR Bank# 59): 0.25 µg/mL (≈ 0.574 µM)
- MIC ([2]; Proteus mirabilis, KUB No. 5652, AR Bank # 155): 4 µg/mL (≈ 9.19 µM)
- MIC ([2]; Proteus mirabilis, KUB No. 5653, AR Bank # 156): ≤ 0.03 µg/mL
- MIC ([2]; Proteus mirabilis, KUB No. 5656, AR Bank # 159): ≤ 0.03 µg/mL
- MIC ([2]; Proteus mirabilis, KUB No. 5773, AR Bank # 377): 4 µg/mL (≈ 9.19 µM)
- MIC ([2]; Proteus mirabilis, KUB No. 5775, AR Bank # 379): 0.25 µg/mL (≈ 0.574 µM)
- MIC ([2]; Providencia rettgeri, KUB No. 5579, AR Bank # 82): ≤ 0.03 µg/mL
- MIC ([2]; Raoultella ornithinolvtica, KUB No. 5631, AR Bank # 134): 8 µg/mL (≈ 18.4 µM)
- MIC ([2]; Serratia marcescens, KUB No. 5588, AR Bank # 91): 32 µg/mL (≈ 73.5 µM)
- MIC ([2]; Serratia marcescens, KUB No. 5618, AR Bank # 121): 16 µg/mL (≈ 36.7 µM)
- MIC ([2]; Serratia marcescens, KUB No. 5619, AR Bank # 122): 16 µg/mL (≈ 36.7 µM)
- MIC ([2]; Serratia marcescens, KUB No. 5620, AR Bank # 123): 16 µg/mL (≈ 36.7 µM)
- MIC ([2]; Serratia marcescens, KUB No. 5621, AR Bank # 124): 8 µg/mL (≈ 18.4 µM)
- MIC ([2]; Serratia marcescens, KUB No. 5627, AR Bank # 130): 16 µg/mL (≈ 36.7 µM)
- MIC ([2]; Serratia marcescens, KUB No. 5628, AR Bank # 131): 16 µg/mL (≈ 36.7 µM)
- MIC ([2]; Serratia marcescens, Serratia marcescens KUB No. 5825, AR Bank #520): 2 µg/mL (≈ 4.59 µM)
- MIC ([3]; A. baumannii KUB No. 5585, AR Bank #88, OXA-64, NDM-1): 32 µg/mL (≈ 73.5 µM)
- MIC ([3]; A. baumannii KUB No. 5714, AR Bank #281, OXA-82): 32 µg/mL (≈ 73.5 µM)
- MIC ([3]; KUB No. 5719, AR Bank #286): 32 µg/mL (≈ 73.5 µM)
- MIC ([3]; KUB No. 5720, AR Bank #287): 32 µg/mL (≈ 73.5 µM)
- MIC ([3]; KUB No. 5727, AR Bank #294): 32 µg/mL (≈ 73.5 µM)
- Number of isolates at MIC 32 µg/mL [3, 4]: 1
- Number of isolates at MIC >64 µg/mL [3, 4]: 3
